Results from US20060074105A1, “Substituted quinoline and quinazoline inhibitors of quinone reductase 2” (Serenex, Inc., priority 2004, published 2006).
“And” between values parts separate entries of the source, which are not always exact repeats. Equal entries are not always repeated. Where two headings read alike, the source gives them in different places.

What was measured:
[1] = target: T1, recombinant QR2 (Homo sapiens, UniProt P16083); assay: Inhibition of QR2 activity in vitro (absorbance at 365 nm, NmeH/menadione); assay type: biochemical
T1 sequence (P16083 1-231): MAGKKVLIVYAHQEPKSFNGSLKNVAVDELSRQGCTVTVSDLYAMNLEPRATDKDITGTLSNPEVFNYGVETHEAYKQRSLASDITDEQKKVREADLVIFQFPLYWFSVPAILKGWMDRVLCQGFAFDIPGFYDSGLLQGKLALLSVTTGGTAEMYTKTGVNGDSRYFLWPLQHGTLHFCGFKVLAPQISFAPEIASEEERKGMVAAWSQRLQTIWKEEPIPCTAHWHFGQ
Protocol: Inhibition of QR2 activity by the compounds of the invention was assayed in triplicate with recombinant QR2 (at 96 ng/ml) by measuring the absorbance at 365 nm in a buffer containing 50 Mm Tris-HCl, Ph 8.5, 50 μM NmeH, 20 μM menadione, and 0.1% Triton X-100 as described in Graves et al. (2002) Mol. Pharmacol. 62: 1364-72.

[2] = Signs of toxicity in mice treated in the four day test; assay type: in vivo
Source text: (§1) Random-bred Swiss albino mice free of Mycoplasma (Eperythrozoon) coccoides and weighing between 18 and 22 g. were infected via the tail vein on day 0 (D0) and then treated once daily either subcutaneously or orally by gavage for four consecutive days (D0 through D+3). Thin blood films were made from tail blood from groups of untreated controls and from treated animals on D+4.

[3] = test system: P. yoelii ssp. MEFA; assay: Four day test for blood schizontocidal activity, mefloquine-resistant P. yoelii ssp. MEFA in mice; assay type: in vivo, Plasmodium yoelii; parameters: ED90: unit not given beside the values; details: for ED50: Plasmodium yoelii
Protocol: (§2) MEFA which was developed from NS by the 2% relapse technique (Peters, W., Chemotherapy and Drug Resistance in Malaria, 2nd Ed., London, Academic Press, ISBN 0-12-552721-7).
(§3) Blood schizontocidal activity was assessed by the “four day test” essentially as described by Peters, W. and Robinson, B. L. (1999), “Malaria” in Handbook of Animal Models of Infection, Academic Press. The compound was dissolved in dimethyl sulfoxide with the aid of ultrasonification and aqueous dilutions were prepared for use.
as §1

[4] = test system: P. yoelii ssp. NS; assay: Four day test for blood schizontocidal activity, chloroquine-resistant P. yoelii ssp. NS in mice; assay type: in vivo, Plasmodium yoelii; parameters: ED90: unit not given beside the values; details: for ED50: Plasmodium yoelii
Protocol: as §2, §3, §1

[5] = test system: Plasmodium chabaudi AS line; assay: Four day test for blood schizontocidal activity, P. chabaudi AS in mice; assay type: in vivo; parameters: ED90: unit not given beside the values; details: for ED50: Plasmodium chabaudi
Protocol: as §2, §3, §1

[6] = average of the determinations, read-out: IC50 Average
[7] = individual determinations, assay range given, read-out: IC50
[8] = set 1, average, read-out: IC50 Average
[9] = set 2, average, read-out: IC50 Average
[10] = set 2, individual determinations, read-out: IC50
[11] = P. yoelii ssp. MEFA, sc, once daily D0 to D+3, mice

Compound | IC50 [1, 6] | IC50 [1, 7] | further results
Clc1ccc2c(NCCc3ccccn3)ccnc2c1 [Compound 2-4] | 3.8 µM | 3.3 µM and 4.7 µM | 
Oc1ccc(CCNc2ccnc3cc(Cl)ccc23)cc1 [Compound 2-5] | 2.7 µM | 2.68 µM and 2.42 µM and 2.86 µM | 
Clc1ccc2c(NCc3ccccn3)ccnc2c1 [Compound 2-17] |  |  | IC50 [1, 8]: 0.6 µM; IC50 ([1]; set 1, individual determinations, read-out: IC50): 0.41 µM and 0.67 µM and 0.72 µM; IC50 [1, 9]: 0.55 µM; IC50 [1, 10]: 0.6 µM and 0.5 µM
Clc1ccc2c(NC3=NC4C=CC=CC4N3)ccnc2c1 (stereo not drawn) [Compound 2-29] | 3.2 µM | 4.1 µM and 2.2 µM and 3.4 µM | 
Clc1ccc2c(SCc3ccccn3)ccnc2c1 [Compound 2-33] | 74 µM | 84 µM and 72.2 µM and 65.9 µM | 
Clc1ccc2c(OCc3ccccn3)ccnc2c1 [Compound 2-34] | 79.6 µM | 81.5 µM and 79 µM and 78.3 µM | 
CNc1ccnc2cc(Cl)ccc12 [Compound 2-39] | 0.13 µM | 0.13 µM and 0.16 µM and 0.09 µM | toxicity ([2]; oral, higher doses): some toxicity was observed at higher doses; overt signs of toxicity ([2]; subcutaneous): No overt signs of toxicity; ED50 ([3]; P. yoelii ssp. MEFA, po, once daily D0 to D+3, mice): 190 mg/kg; ED50 [3, 11]: 320 mg/kg; inhibitory activity against resistant strain of P. yoelii ([3]; mefloquine-resistant P. yoelii ssp. MEFA, result in words): demonstrated inhibitory activity; ED50 ([4]; po): 220 mg/kg; ED50 ([4]; sc): 400 mg/kg; inhibitory activity against resistant strain of P. yoelii ([4]; chloroquine-resistant P. yoelii ssp. NS, result in words): demonstrated inhibitory activity; ED50 ([5]; po): 150 mg/kg; ED50 ([5]; sc): 150 mg/kg; activity against the drug-sensitive P. chabaudi AS line ([5]; parenteral and oral, result in words): active both parenterally and orally
CC(O)CNCCNc1cc(C(F)(F)F)nc2c(C(F)(F)F)cccc12 (stereo not drawn) [Compound 3-3] | 98 µM | 109 µM and 87 µM | 
OCCN(CCO)CCCNc1cc(C(F)(F)F)nc2c(C(F)(F)F)cccc12 [Compound 3-4] | 238 µM | 229 µM and 164 µM and 320 µM | 
COc1cc(NCc2ccccn2)c2ncccc2c1 [Compound 4-1] | 0.47 µM | 0.34 µM and 0.24 µM and 0.84 µM | 
CCN(CC)CCCC(C)Nc1ccnc2cc(Cl)ccc12 (stereo not drawn) [chloroquine, reference compound] |  |  | ED90 ([4]; P. yoelii ssp. NS, sc, once daily D0 to D+3, mice): 19.0; ED50 ([4]; sc): 5 mg/kg; IC50 ([1]; read-out: QR2 IC50): 1 to 5 µM; IC50 [1, 8]: 1.13 µM; IC50 [1, 9]: 4.13 µM; IC50 [1, 10]: 3.99 µM and 4.15 µM and 4.25 µM
OC(c1cc(C(F)(F)F)nc2c(C(F)(F)F)cccc12)C1CCCCN1 (stereo not drawn) [mefloquine, reference compound] | 33 µM | 28 µM and 34.8 µM and 36.5 µM | ED90 [3, 11]: 100; ED50 [3, 11]: 20 mg/kg; ED90 ([5]; P. chabaudi AS, sc (subcutaneous injection), once daily D0 to D+3, mice): 3.0; ED50 ([5]; P. chabaudi AS, sc (subcutaneous injection), once daily D0 to D+3, mice, read-out: ED50): 1.5 mg/kg
COc1cc(NC(C)CCCN)c2ncccc2c1 (stereo not drawn) [primaquine, reference compound] |  |  | IC50 ([1]; IC50 (μM), individual determinations, assay range given): 14.2 µM and 11 µM and 13.2 µM; IC50 ([1]; IC50 Average, average of the determinations): 13 µM

Now from value to molecule, other results behind:

IC50 [1, 6] | IC50 [1, 7] | Compound | further results
4.8 µM | 4.5 µM and 4.7 µM and 5.3 µM | COc1cc(NC2CCN(Cc3ccccc3)CC2)c2ncccc2c1 [Compound 4-2] | 
10.2 µM | 9.1 µM and 7.8 µM and 13.7 µM | CCC(CC)(CCC#N)CNc1cc(OC)cc2cccnc12 [Compound 4-3] | 
23 µM | 18.5 µM and 21.7 µM and 28.8 µM | CCN(CC)CCC(C)Nc1cc(OC)cc2cccnc12 (stereo not drawn) [Compound 4-5] | 
1.6 µM | 2.2 µM and 0.89 µM and 1.65 µM | CCN1CCC(Nc2cc(OC)cc3cccnc23)CC1 [Compound 4-8] | 
18.5 µM | 11.6 µM and 27.5 µM and 16.4 µM | CCC(CC)(CCCN)CNc1cc(OC)cc2cccnc12 [Compound 4-9] | 
189 µM | 132 µM and 180 µM and 255 µM | O=[N+]([O-])c1ccc(NCCNc2cc(C(F)(F)F)nc3cc(C(F)(F)F)ccc23)nc1 [Compound 5, N-(2-(5-nitropyridin-2-ylamino)ethyl)-2,7-bis(trifluoromethyl)quinolin-4-amine] | 
43.3 µM | 49.5 µM and 40 µM and 40.3 µM | Clc1ccc2cc(-c3ccccc3)cnc2c1 [Compound 7, 7-chloro-3-phenylquinoline] | 
4.9 µM | 4.2 µM and 4.7 µM and 5.8 µM | COc1ccc2c(ccc[n+]2[O-])c1 [Compound 9, 6-methoxyquinoline N-oxide] | 
